Results from patent publication US7767814B2, “Substituted piperidine compounds and methods of their use” (Adolor Corporation, priority 2004, dated 2010).

Experiments:
[1] = target: T1, cloned human μ opioid receptor (Homo sapiens, UniProt P35372); experiment: [3H]diprenorphine receptor binding, cloned human μ opioid receptor
T1 construct: expressed in transfected cells; membranes used
Description: IC50 values were obtained by nonlinear analysis of the data using GraphPad Prism version 3.00 for Windows (GraphPad Software, San Diego). Ki values were obtained by Cheng-Prusoff corrections of IC50 values.
After dilution in buffer A and homogenization as before, membrane proteins (10-80 μg) in 250 μL were added to mixtures containing test compound and [^3H]diprenorphine (0.5 to 1.0 nM, 40,000 to 50,000 dpm) in 250 μL of buffer A in 96-well deep-well polystyrene titer plates (Beckman). […] The filters were rinsed 4 times with 1 mL of cold 50 mM Tris HCl, pH 7.8 and radioactivity remaining on the filters determined by scintillation spectroscopy. Nonspecific binding was determined by the minimum values of the titration curves and was confirmed by separate assay wells containing 10 μM naloxone.
To determine the equilibrium dissociation constant for the inhibitors (Ki), radioligand bound (cpm) in the presence of various concentrations of test compounds was measured. The concentration to give half-maximal inhibition (EC50) of radioligand binding was determined from a best nonlinear regression fit to the following equation, […]

[2] = target: cloned human δ opioid receptor (Homo sapiens, UniProt P41143); conditions: cloned human opioid receptors; background statement; read-out: Ki, inhibition of [3H]diprenorphine binding, δ receptor; cited from earlier work
[3] = target: cloned human κ opioid receptor (Homo sapiens, UniProt P41145); conditions: cloned human opioid receptors; background statement; read-out: Ki, inhibition of [3H]diprenorphine binding, κ receptor; cited from earlier work
Sequence of cloned human κ opioid receptor (P41145 whole entry): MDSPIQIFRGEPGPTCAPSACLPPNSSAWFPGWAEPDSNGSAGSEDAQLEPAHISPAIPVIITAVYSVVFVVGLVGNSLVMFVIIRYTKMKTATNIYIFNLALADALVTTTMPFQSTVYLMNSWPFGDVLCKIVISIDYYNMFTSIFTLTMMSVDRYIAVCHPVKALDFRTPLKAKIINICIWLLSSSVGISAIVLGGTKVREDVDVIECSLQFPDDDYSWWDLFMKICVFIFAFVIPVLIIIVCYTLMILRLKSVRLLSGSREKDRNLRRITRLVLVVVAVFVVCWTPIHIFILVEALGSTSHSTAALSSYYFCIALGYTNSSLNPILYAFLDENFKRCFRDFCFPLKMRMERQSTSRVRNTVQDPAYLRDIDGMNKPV

Sequence of cloned human δ opioid receptor (P41143 whole entry): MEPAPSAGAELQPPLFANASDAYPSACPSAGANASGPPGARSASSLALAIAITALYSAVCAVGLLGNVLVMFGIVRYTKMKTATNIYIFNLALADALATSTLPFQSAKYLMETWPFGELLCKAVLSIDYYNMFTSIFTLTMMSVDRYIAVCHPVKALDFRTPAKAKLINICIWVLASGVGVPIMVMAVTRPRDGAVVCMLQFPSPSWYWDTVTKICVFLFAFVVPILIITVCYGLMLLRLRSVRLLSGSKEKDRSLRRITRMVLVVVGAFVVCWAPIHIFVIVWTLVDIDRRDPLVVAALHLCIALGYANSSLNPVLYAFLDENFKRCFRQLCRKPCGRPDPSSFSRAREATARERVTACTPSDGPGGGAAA
T1 sequence (P35372 whole entry): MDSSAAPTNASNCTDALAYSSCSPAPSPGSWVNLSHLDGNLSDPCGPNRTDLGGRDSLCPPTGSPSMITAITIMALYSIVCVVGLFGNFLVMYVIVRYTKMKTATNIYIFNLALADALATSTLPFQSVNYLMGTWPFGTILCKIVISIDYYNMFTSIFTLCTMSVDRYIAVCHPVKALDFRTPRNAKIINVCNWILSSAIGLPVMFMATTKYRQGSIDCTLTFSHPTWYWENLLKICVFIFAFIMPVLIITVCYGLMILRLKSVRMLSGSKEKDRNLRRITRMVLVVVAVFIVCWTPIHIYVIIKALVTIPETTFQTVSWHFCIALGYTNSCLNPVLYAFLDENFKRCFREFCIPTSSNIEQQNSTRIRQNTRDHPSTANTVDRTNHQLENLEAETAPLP

Structure (SMILES) | Ki [1] [nM] | Ki [2] [nM] | Ki [3] [nM]
C[C@H]1C2CCC[C@]1(c1cccc(O)c1)CCN2C[C@H](Cc1ccccc1)C(=O)NCC(=O)O [Example 2, {2S-Benzyl-3-[5-(3-hydroxy-phenyl)-9-methyl-2-aza-bicyclo[3.3.1]non-2-yl]-propionylamino}-acetic acid] | 1.5 | – | –
C[C@H]1CN(C[C@H](Cc2ccccc2)C(=O)NCC(=O)O)CC[C@@]1(C)c1cccc(O)c1 [Alvimopan] | – | 10 | 92
